Test results: patent US11078170B2 (Assembly Biosciences, Inc., priority 2017, dated 2021)

system: HBV viral production from HepAD38 cells; assay: Activity of test compounds on viral production from HepAD38 cells (viral load by qPCR of HBV core sequence in supernatant); assay type: cell-based; details: Hepatitis B virus, 120 h, 5 days incubation, HBV DNA in supernatant by qPCR, top concentration 10 μM, read-out: Viral Load EC50 Activity range
Summary of the method: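 HepAD38 cells, 50,000/well in tetracycline-free 2% FBS medium, treated 5 days at 37° C. with compound from 10 μM top concentration. HBV DNA in supernatant quantified by TaqMan qPCR of core sequence against DNA standards, relative to DMSO wells; CellTiter-Glo viability read in parallel. EC50/CC50 from four-parameter logistic fit.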

**Q.** With `C=CCN1[C@H](C(=O)Nc2ccc(F)c(Cl)c2)C[C@H](c2nccs2)NS1(=O)=O` [HBV-CSU-094-ISO-II, Cis-2-Allyl-N-(3-chloro-4-fluorophenyl)-5-(thiazol-2-yl)-1,2,6-thiadiazinane-3-carboxamide 1,1-dioxide] as the compound, how does the EC50 read?
**A.** < 1000 nM

**Q.** Which EC50 does the source give for `CN1[C@@H](C(=O)Nc2ccc(F)c(Cl)c2)C[C@@H](c2ccc(-c3cncnc3)s2)NS1(=O)=O` [HBV-CSU-272-ISO-II, Cis-N-(3-chloro-4-fluorophenyl)-2-methyl-5-(5-(pyrimidin-5-yl)thiophen-2-yl)-1,2,6-thiadiazinane-3-carboxamide 1,1-dioxide] here?
**A.** > 5000 nM

**Q.** How did the EC50 turn out when `CN1[C@@H](C(=O)Nc2ccc(F)c(Cl)c2)C[C@@H](c2ncc(-c3ccc(F)cc3)s2)NS1(=O)=O` [HBV-CSU-248-ISO-II, Cis-N-(3-Chloro-4-fluorophenyl)-5-(5-(4-fluorophenyl)thiazol-2-yl)-2-methyl-1,2,6-thiadiazinane-3-carboxamide 1,1-dioxide] was run?
**A.** > 5000 nM

**Q.** Which EC50 does the source give for `CN1[C@@H](C(=O)Nc2ccc(F)c(Cl)c2)C[C@@H](c2ncc(-c3ccccc3)s2)NS1(=O)=O` here?
**A.** 1000 to 5000 nM

**Q.** How did the EC50 turn out when `COCCN1C(C(=O)Nc2ccc(F)c(Br)c2)CC(c2nccs2)NS1(=O)=O` (racemic) [HBV-CSU-059, Cis-N-(3-bromo-4-fluorophenyl)-2-(2-methoxyethyl)-5-(thiazol-2-yl)-1,2,6-thiadiazinane-3-carboxamide 1,1-dioxide] was run?
**A.** < 1000 nM

**Q.** Which EC50 does the source give for `CCc1sc([C@@H]2C[C@H](C(=O)Nc3ccc(F)c(Cl)c3)N(C)S(=O)(=O)N2)cc1-c1cnn(C)c1` [HBV-CSU-305-ISO-II, Cis-N-(3-Chloro-4-fluorophenyl)-5-(5-ethyl-4-(1-methyl-1H-pyrazol-4-yl)thiophen-2-yl)-2-methyl-1,2,6-thiadiazinane-3-carboxamide 1,1-dioxide] here?
**A.** 1000 to 5000 nM

**Q.** `[2H]C1[C@]([2H])(c2ccc(-c3cn(C)cn3)s2)NS(=O)(=O)N(C)[C@]1([2H])C(=O)Nc1ccc(F)c(Cl)c1` (stereo in doubt) [HBV-CSU-375-ISO-I, Cis-N-(3-Chloro-4-fluorophenyl)-2-methyl-5-(5-(1-methyl-1H-imidazol-4-yl)thiophen-2-yl)-1,2,6-thiadiazinane-3,4,5-d3-3-carboxamide 1,1-dioxide] was tested. Which EC50 did it give?
**A.** < 1000 nM

**Q.** Which EC50 does the source give for `CN1C(C(=O)Nc2ccc(F)c(Cl)c2)CC(c2ncc(-c3ccccn3)s2)NS1(=O)=O` (racemic) [HBV-CSU-176, Cis-N-(3-chloro-4-fluorophenyl)-2-methyl-5-(5-(pyridin-2-yl)thiazol-2-yl)-1,2,6-thiadiazinane-3-carboxamide 1,1-dioxide] here?
**A.** < 1000 nM

**Q.** For `CN1[C@@H](C(=O)Nc2ccc(F)c(Cl)c2)C[C@@H](c2ccc(-c3ccc(NS(C)(=O)=O)cc3)s2)NS1(=O)=O` (relative stereo) [HBV-CSU-163-ISO-II, Cis-N-(3-chloro-4-fluorophenyl)-2-methyl-5-(5-(4-(methylsulfonamido)phenyl)thiophen-2-yl)-1,2,6-thiadiazinane-3-carboxamide 1,1-dioxide], which EC50 is on record?
**A.** < 1000 nM

**Q.** With `CN(C)CCCOc1ccc([C@H]2C[C@@H](C(=O)Nc3ccc(F)c(Cl)c3)N(C)S(=O)(=O)N2)cc1` [HBV-CSU-208-ISO-II, Cis-N-(3-chloro-4-fluorophenyl)-5-(4-(3-(dimethylamino)propoxy)phenyl)-2-methyl-1,2,6-thiadiazinane-3-carboxamide 1,1-dioxide] as the compound, how does the EC50 read?
**A.** < 1000 nM

**Q.** `COc1ccc(-c2csc([C@@H]3C[C@H](C(=O)Nc4ccc(F)c(Cl)c4)N(C)S(=O)(=O)N3)c2)cc1` [HBV-CSU-241-ISO-II] was tested. Which EC50 did it give?
**A.** 1000 to 5000 nM

**Q.** With `COCCCN1[C@@H](C(=O)Nc2ccc(F)c(Cl)c2)C[C@@H](c2nccs2)NS1(=O)=O` [HBV-CSU-077-ISO-I, Cis-N-(3-Chloro-4-fluorophenyl)-2-(3-methoxypropyl)-5-(thiazol-2-yl)-1,2,6-thiadiazinane-3-carboxamide 1,1-dioxide] as the compound, how does the EC50 read?
**A.** > 5000 nM

**Q.** For `[2H]C([2H])([2H])N1[C@@H](C(=O)Nc2ccc(F)c(Cl)c2)C[C@@H](c2ccc(Br)s2)NS1(=O)=O` (relative stereo) [HBV-CSU-370-ISO-II, Cis-5-(5-bromothiophen-2-yl)-N-(3-chloro-4-fluorophenyl)-2-(methyl-d3)-1,2,6-thiadiazinane-3-carboxamide 1,1-dioxide], which EC50 is on record?
**A.** 1000 to 5000 nM

**Q.** Which EC50 does the source give for `O=C(Nc1ccc(F)c(Cl)c1)[C@@H]1C[C@H](c2nccs2)NS(=O)(=O)N1CCCN1CCOCC1` [HBV-CSU-103-ISO-II] here?
**A.** 1000 to 5000 nM

**Q.** Which EC50 does the source give for `CN1[C@H](C(=O)Nc2ccc(F)c(Cl)c2)C[C@H](c2ccc(-c3cnn(CCO)c3)s2)NS1(=O)=O` [HBV-CSU-293-ISO-I, Cis-N-(3-chloro-4-fluorophenyl)-5-(5-(1-(2-hydroxyethyl)-1H-pyrazol-4-yl)thiophen-2-yl)-2-methyl-1,2,6-thiadiazinane-3-carboxamide 1,1-dioxide] here?
**A.** < 1000 nM

**Q.** `CN1[C@@H](C(=O)Nc2ccc(F)c(Br)c2)C[C@@H](c2nccs2)NS1(=O)=O` [HBV-CSU-060-ISO-I, Cis-N-(3-bromo-4-fluorophenyl)-2-methyl-5-(thiazol-2-yl)-1,2,6-thiadiazinane-3-carboxamide 1,1-dioxide] was tested. Which EC50 did it give?
**A.** > 5000 nM

**Q.** With `CN1[C@H](C(=O)Nc2ccc(F)c(Br)c2)C[C@H](c2nccs2)NS1(=O)=O` [HBV-CSU-060-ISO-II, Cis-N-(3-bromo-4-fluorophenyl)-2-methyl-5-(thiazol-2-yl)-1,2,6-thiadiazinane-3-carboxamide 1,1-dioxide] as the compound, how does the EC50 read?
**A.** < 1000 nM

**Q.** How did the EC50 turn out when `CN1[C@@H](C(=O)Nc2ccc(F)c(Cl)c2)C[C@@H](c2ccc(-c3ccc(C#N)c(F)c3)s2)NS1(=O)=O` [HBV-CSU-156-ISO-II, Cis-N-(3-chloro-4-fluorophenyl)-5-(5-(4-cyano-3-fluorophenyl)thiophen-2-yl)-2-methyl-1,2,6-thiadiazinane-3-carboxamide 1,1-dioxide] was run?
**A.** > 5000 nM

**Q.** For `CN1[C@H](C(=O)Nc2ccc(F)c(Cl)c2)C[C@H](c2ccc(-c3cccnc3)s2)NS1(=O)=O` [HBV-CSU-159-ISO-II, Cis-N-(3-chloro-4-fluorophenyl)-2-methyl-5-(5-(pyridin-3-yl)thiophen-2-yl)-1,2,6-thiadiazinane-3-carboxamide 1,1-dioxide], which EC50 is on record?
**A.** < 1000 nM

**Q.** How did the EC50 turn out when `CN1[C@@H](C(=O)Nc2ccc(F)c(Cl)c2)C[C@@H](c2ccc(-c3cnn(C)c3)cc2)NS1(=O)=O` (relative stereo) [HBV-CSU-246-ISO-I, Cis-N-(3-Chloro-4-fluorophenyl)-2-methyl-5-(4-(1-methyl-1H-pyrazol-4-yl)phenyl)-1,2,6-thiadiazinane-3-carboxamide 1,1-dioxide] was run?
**A.** > 5000 nM

**Q.** `CN1[C@H](C(=O)Nc2ccc(F)c(Br)c2)C[C@H](c2cccs2)NS1(=O)=O` [HBV-CSU-016-ISO-I, Cis-N-(3-Bromo-4-fluorophenyl)-2-methyl-5-(thiophen-2-yl)-1,2,6-thiadiazinane-3-carboxamide 1,1-dioxide] was tested. Which EC50 did it give?
**A.** < 1000 nM

**Q.** How did the EC50 turn out when `CN1C(C(=O)Nc2ccc(F)c(Cl)c2)CC(c2nnc(-c3ccccc3)s2)NS1(=O)=O` (racemic) [HBV-CSU-120, Cis-N-(3-Chloro-4-fluorophenyl)-2-methyl-5-(5-phenyl-1,3,4-thiadiazol-2-yl)-1,2,6-thiadiazinane-3-carboxamide 1,1-dioxide] was run?
**A.** < 1000 nM

**Q.** How did the EC50 turn out when `CN1[C@H](C(=O)Nc2ccc(F)c(Cl)c2)C[C@H](c2ccc(Cl)cc2)NS1(=O)=O` [HBV-CSU-265-ISO-I] was run?
**A.** < 1000 nM

**Q.** For `CN1[C@@H](C(=O)Nc2ccc(F)c(Cl)c2)C[C@@H](c2ccc(-c3nncn3C)s2)NS1(=O)=O` [HBV-CSU-324-ISO-II, Cis-N-(3-Chloro-4-fluorophenyl)-2-methyl-5-(5-(4-methyl-4H-1,2,4-triazol-3-yl)thiophen-2-yl)-1,2,6-thiadiazinane-3-carboxamide 1,1-dioxide], which EC50 is on record?
**A.** 1000 to 5000 nM

**Q.** How did the EC50 turn out when `Cc1nn(C)c(C)c1-c1csc([C@H]2C[C@@H](C(=O)Nc3ccc(F)c(Cl)c3)N(C)S(=O)(=O)N2)c1` [HBV-CSU-317-ISO-I, Cis-N-(3-chloro-4-fluorophenyl)-2-methyl-5-(4-(1,3,5-trimethyl-1H-pyrazol-4-yl)thiophen-2-yl)-1,2,6-thiadiazinane-3-carboxamide 1,1-dioxide] was run?
**A.** < 1000 nM

**Q.** Which EC50 does the source give for `CN1C(C(=O)Nc2ccc(F)c(Cl)c2)CC(c2ccc(-c3ccc(C#N)c(F)c3)s2)NS1(=O)=O` (racemic) [HBV-CSU-156, Cis-N-(3-chloro-4-fluorophenyl)-5-(5-(4-cyano-3-fluorophenyl)thiophen-2-yl)-2-methyl-1,2,6-thiadiazinane-3-carboxamide 1,1-dioxide] here?
**A.** < 1000 nM

**Q.** How did the EC50 turn out when `CN1[C@@H](C(=O)Nc2ccc(F)c(Cl)c2)C[C@@H](c2ccccn2)NS1(=O)=O` [HBV-CSU-031-ISO-II, Cis-N-(3-Chloro-4-fluorophenyl)-2-methyl-5-(pyridin-2-yl)-1,2,6-thiadiazinane-3-carboxamide 1,1-dioxide] was run?
**A.** > 5000 nM

**Q.** `O=C(Nc1ccc(F)c(Cl)c1)[C@@H]1C[C@H](c2nccs2)NS(=O)(=O)N1` [HBV-CSU-096-ISO-II, Cis-N-(3-Chloro-4-fluorophenyl)-5-(thiazol-2-yl)-1,2,6-thiadiazinane-3-carboxamide 1,1-dioxide] was tested. Which EC50 did it give?
**A.** < 1000 nM

**Q.** With `CN1[C@H](C(=O)Nc2ccc(F)c(Cl)c2)C[C@H](c2ccc(-c3ncnn3C)s2)NS1(=O)=O` [HBV-CSU-323-ISO-I, Cis-N-(3-Chloro-4-fluorophenyl)-2-methyl-5-(5-(1-methyl-1H-1,2,4-triazol-5-yl)thiophen-2-yl)-1,2,6-thiadiazinane-3-carboxamide 1,1-dioxide] as the compound, how does the EC50 read?
**A.** < 1000 nM

**Q.** `CCN(CC)CCCN1[C@@H](C(=O)Nc2ccc(F)c(Cl)c2)C[C@@H](c2nccs2)NS1(=O)=O` [HBV-CSU-101-ISO-I, Cis-N-(3-Chloro-4-fluorophenyl)-2-(3-(diethylamino)propyl)-5-(thiazol-2-yl)-1,2,6-thiadiazinane-3-carboxamide 1,1-dioxide] was tested. Which EC50 did it give?
**A.** > 5000 nM

**Q.** `CN1[C@H](C(=O)Nc2ccc(F)c(Cl)c2)C[C@H](c2ccccc2)NS1(=O)=O` [HBV-CSU-113-ISO-I, Cis-N-(3-chloro-4-fluorophenyl)-2-methyl-5-phenyl-1,2,6-thiadiazinane-3-carboxamide 1,1-dioxide] was tested. Which EC50 did it give?
**A.** < 1000 nM
